Molecules are shown by their SMILES.

The target of this assay is T1, recombinant human GR (Homo sapiens, UniProt P04150).
T1 construct: purchased Panvera/Invitrogen P2812 (kit P2893)
T1 sequence (P04150 1-777): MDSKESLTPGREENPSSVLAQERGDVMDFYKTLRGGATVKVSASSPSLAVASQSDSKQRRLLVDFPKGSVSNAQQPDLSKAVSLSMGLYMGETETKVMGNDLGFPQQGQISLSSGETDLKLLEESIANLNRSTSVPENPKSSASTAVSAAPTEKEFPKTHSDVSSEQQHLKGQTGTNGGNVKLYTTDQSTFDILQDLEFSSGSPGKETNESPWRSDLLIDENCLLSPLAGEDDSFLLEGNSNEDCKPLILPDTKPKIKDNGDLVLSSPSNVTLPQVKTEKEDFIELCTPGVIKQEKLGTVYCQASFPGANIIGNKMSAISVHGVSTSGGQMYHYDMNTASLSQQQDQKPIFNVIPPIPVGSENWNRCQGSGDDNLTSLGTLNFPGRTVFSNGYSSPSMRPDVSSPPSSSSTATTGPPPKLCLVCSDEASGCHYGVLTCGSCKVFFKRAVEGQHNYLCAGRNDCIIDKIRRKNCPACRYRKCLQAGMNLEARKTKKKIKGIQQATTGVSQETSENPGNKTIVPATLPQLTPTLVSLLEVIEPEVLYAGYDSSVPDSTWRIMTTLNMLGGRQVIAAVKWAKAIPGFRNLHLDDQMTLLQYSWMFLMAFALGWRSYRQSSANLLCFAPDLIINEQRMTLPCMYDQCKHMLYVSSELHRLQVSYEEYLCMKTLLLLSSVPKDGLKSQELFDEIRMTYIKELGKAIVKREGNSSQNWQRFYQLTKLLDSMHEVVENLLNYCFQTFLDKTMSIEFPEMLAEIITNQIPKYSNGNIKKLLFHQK
The assay can be described thus: Human Glucocorticoid Receptor (GR) Assay (fluorescence polarization, Panvera/Invitrogen kit). The format is binding. The conditions noted are these: fluorescence polarization; GS Red tracer; 2 hours at room temperature; 100% control 10 μM Dexamethasone; read-out: Inhibition of GR binding, IC50. The gist of the method: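 Fluorescence polarization competition with recombinant GR and GS Red fluorescent ligand plus stabilizing peptide and DTT in potassium phosphate/sodium molybdate/EDTA buffer with DMSO. Incubated 2 hours at room temperature in the dark; 0% control DMSO, 100% control 10 μM dexamethasone.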
On to `CSC(=O)[C@@]1(OC(=O)c2cocn2)CC[C@H]2[C@@H]3CCC4=Cc5c(cnn5-c5ccc(F)nc5)C[C@]4(C)[C@H]3[C@@H](O)C[C@@]21C` [Example 161, (1R,3aS,3bS,10aR,10bS,11S,12aS)-7-(6-Fluoropyridin-3-yl)-11-hydroxy-10a,12a-dimethyl-1-[(methylsulfanyl)carbonyl]-1,2,3,3a,3b,4,5,7,10,10a,10b,11,12,12a-tetradecahydrocyclopenta[5,6]naphtho[1,2-f]indazol-1-yl 1,3-oxazole-4-carboxylate], for which the IC50 (in general, the concentration that gives 50% inhibition) was 1.3 nM. Turning to `C[C@]12Cc3cnn(-c4ccc(F)nc4)c3C=C1CC[C@@H]1[C@@H]2[C@@H](O)C[C@@]2(C)[C@H]1CC[C@]2(OC(=O)c1cocn1)C(=O)SCCO` [Example 162, (1R,3aS,3bS,10aR,10bS,11S,12aS)-7-(6-Fluoropyridin-3-yl)-11-hydroxy-1-{[(2-hydroxyethyl)sulfanyl]carbonyl}-10a,12a-dimethyl-1,2,3,3a,3b,4,5,7,10,10a,10b,11,12,12a-tetradecahydrocyclopenta[5,6]naphtho[1,2-f]indazol-1-yl 1,3-oxazole-4-carboxylate], the IC50 amounted to 1.8 nM. As for `COCSC(=O)[C@@]1(OC(=O)c2cocn2)CC[C@H]2[C@@H]3CCC4=Cc5c(cnn5-c5ccc(F)nc5)C[C@]4(C)[C@H]3[C@@H](O)C[C@@]21C` [Example 163, (1R,3aS,3bS,10aR,10bS,11S,12aS)-7-(6-Fluoropyridin-3-yl)-11-hydroxy-1-{[(methoxymethyl)sulfanyl]carbonyl}-10a,12a-dimethyl-1,2,3,3a,3b,4,5,7,10,10a,10b,11,12,12a-tetradecahydrocyclopenta[5,6]naphtho[1,2-f]indazol-1-yl 1,3-oxazole-4-carboxylate], the figure is 1.7 nM. Regarding `C[C@]12Cc3cnn(-c4ccc(F)nc4)c3C=C1CC[C@@H]1[C@@H]2[C@@H](O)C[C@@]2(C)[C@H]1CC[C@]2(O)C(=O)SCC#N` [Example 164, S-(Cyanomethyl)(1R,3aS,3bS,10aR,10bS,11S,12aS)-7-(6-fluoropyridin-3-yl)-1,11-dihydroxy-10a,12a-dimethyl-1,2,3,3a,3b,4,5,7,10,10a,10b,11,12,12a-tetradecahydrocyclopenta[5,6]naphtho[1,2-f]indazole-1-carbothioate], the IC50 was 1.4 nM. In the case of `CSC(=O)[C@@]1(O)CC[C@H]2[C@@H]3CCC4=Cc5c(cnn5-c5ccc(F)nc5)C[C@]4(C)[C@H]3[C@@H](O)C[C@@]21C` [Example 165, S-Methyl(1R,3aS,3bS,10aR,10bS,11S,12aS)-7-(6-fluoropyridin-3-yl)-1,11-dihydroxy-10a,12a-dimethyl-1,2,3,3a,3b,4,5,7,10,10a,10b,11,12,12a-tetradecahydrocyclopenta[5,6]naphtho[1,2-f]indazole-1-carbothioate], the IC50 worked out at 3.8 nM. Consider `C[C@]12Cc3cnn(-c4ccc(F)nc4)c3C=C1CC[C@@H]1[C@@H]2[C@@H](O)C[C@@]2(C)[C@H]1CC[C@]2(OC(=O)c1ccco1)C(=O)SCC#N` [Example 166, (1R,3aS,3bS,10aR,10bS,11S,12aS)-1-{[(Cyanomethyl)sulfanyl]carbonyl}-7-(6-fluoropyridin-3-yl)-11-hydroxy-10a,12a-dimethyl-1,2,3,3a,3b,4,5,7,10,10a,10b,11,12,12a-tetradecahydrocyclopenta[5,6]naphtho[1,2-f]indazol-1-yl furan-2-carboxylate], for which the IC50 was determined as 5.8 nM. As for `CSC(=O)[C@@]1(OC(=O)c2ccco2)CC[C@H]2[C@@H]3CCC4=Cc5c(cnn5-c5ccc(F)nc5)C[C@]4(C)[C@H]3[C@@H](O)C[C@@]21C` [Example 167, (1R,3aS,3bS,10aR,10bS,11S,12aS)-7-(6-Fluoropyridin-3-yl)-11-hydroxy-10a,12a-dimethyl-1-[(methylsulfanyl)carbonyl]-1,2,3,3a,3b,4,5,7,10,10a,10b,11,12,12a-tetradecahydrocyclopenta[5,6]naphtho[1,2-f]indazol-1-yl furan-2-carboxylate], the figure is 5.6 nM; as for `C[C@]12Cc3cnn(-c4ccc(F)nc4)c3C=C1CC[C@@H]1[C@@H]2[C@@H](O)C[C@@]2(C)[C@H]1CC[C@]2(OC(=O)c1ccco1)C(=O)SCCO` [Example 168, (1R,3aS,3bS,10aR,10bS,11S,12aS)-7-(6-Fluoropyridin-3-yl)-11-hydroxy-1-{[(2-hydroxyethyl)sulfanyl]carbonyl}-10a,12a-dimethyl-1,2,3,3a,3b,4,5,7,10,10a,10b,11,12,12a-tetradecahydrocyclopenta[5,6]naphtho[1,2-f]indazol-1-yl furan-2-carboxylate], 5.3 nM. On to `CCC(=O)O[C@]1(C(=O)SCC#N)CC[C@H]2[C@@H]3CCC4=Cc5c(cnn5-c5ccc(F)c(C(=O)SCC#N)c5)C[C@]4(C)[C@H]3[C@@H](O)C[C@@]21C` [Example 174, (1R,3aS,3bS,10aR,10bS,11S,12aS)-1-{[(Cyanomethyl)sulfanyl]carbonyl}-7-(3-{[(cyanomethyl)sulfanyl]carbonyl}-4-fluorophenyl)-11-hydroxy-10a,12a-dimethyl-1,2,3,3a,3b,4,5,7,10,10a,10,12,12a-tetradecahydrocyclopenta[5,6]naphtho[1,2-f]indazol-1-yl propanoate], for which the IC50 came to 34 nM. As to `CCC(=O)O[C@]1(C(=O)SC)CC[C@H]2[C@@H]3CCC4=Cc5c(cnn5-c5ccc(F)c(C(=O)SC)c5)C[C@]4(C)[C@H]3[C@@H](O)C[C@@]21C` [Example 175, (1R,3aS,3bS,10aR,10bS,11S,12aS)-7-{4-Fluoro-3-[(methylsulfanyl)carbonyl]phenyl}-11-hydroxy-10a,12a-dimethyl-1-[(methylsulfanyl)carbonyl]-1,2,3,3a,3b,4,5,7,10,10a,10b,11,12,12a-tetradecahydrocyclopenta[5,6]naphtho[1,2-f]indazol-1-yl propanoate], the IC50 was found to be 18 nM. With `Cn1cccc1C(=O)O[C@]1(C(=O)SCC#N)CC[C@H]2[C@@H]3CCC4=Cc5c(cnn5-c5ccc(F)cc5)C[C@]4(C)[C@H]3[C@@H](O)C[C@@]21C` [Example 176, (1R,3aS,3bS,10aR,10bS,11S,12aS)-1-{[(Cyanomethyl)thio]carbonyl}-7-(4-fluorophenyl)-11-hydroxy-10a,12a-dimethyl-1,2,3,3a,3b,4,5,7,10,10a,10b,11,12,12a-tetradecahydrocyclopenta[5,6]naphtho[1,2-f]indazol-1-yl 1-methyl-1H-pyrrole-2-carboxylate] the figure was 11 nM. In the case of `Cn1cccc1C(=O)O[C@]1(C(=O)SCF)CC[C@H]2[C@@H]3CCC4=Cc5c(cnn5-c5ccc(F)cc5)C[C@]4(C)[C@H]3[C@@H](O)C[C@@]21C` [Example 177, (1R,3aS,3bS,10aR,10bS,11S,12aS)-1-{[(Fluoromethyl)thio]carbonyl}-7-(4-fluorophenyl)-11-hydroxy-10a,12a-dimethyl-1,2,3,3a,3b,4,5,7,10,10a,10b,11,12,12a-tetradecahydrocyclopenta[5,6]naphtho[1,2-f]indazol-1-yl 1-methyl-1H-pyrrole-2-carboxylate], the 50% inhibitory concentration (IC50) was 7.5 nM. In the case of `Cn1cccc1C(=O)O[C@]1(C(=O)SCCO)CC[C@H]2[C@@H]3CCC4=Cc5c(cnn5-c5ccc(F)cc5)C[C@]4(C)[C@H]3[C@@H](O)C[C@@]21C` [Example 178, (1R,3aS,3bS,10aR,10bS,11S,12aS)-7-(4-Fluorophenyl)-11-hydroxy-1-{[(2-hydroxyethyl)thio]carbonyl}-10a,12a-dimethyl-1,2,3,3a,3b,4,5,7,10a,10b,11,12,12a-tetradecahydrocyclopenta[5,6]naphtho[1,2]-indazol-1-yl 1-methyl-1H-pyrrole-2-carboxylate], the IC50 amounted to 7.6 nM. As for `C[C@]12Cc3cnn(-c4ccnnc4)c3C=C1CC[C@@H]1[C@@H]2[C@@H](O)C[C@@]2(C)[C@H]1CC[C@]2(OC(=O)C1CC1)C(=O)OCC#N` [Example 184, Cyanomethyl(1R,3aS,3bS,10aR,10bS,11S,12aS)-1-[(cyclopropylcarbonyl)oxy]-11-hydroxy-10a,12a-dimethyl-7-pyridazin-4-yl-1,2,3,3a,3b,4,5,7,10,10a,10b,11,12,12a-tetradecahydrocyclopenta[5,6]naphtho[1,2-f]indazole-1-carboxylate], the IC50 turned out to be 1.7 nM.

The values above are taken from patent US8163724B2, “Glucocorticosteroids, processes for their preparation, pharmaceutical compositions containing them and their use in therapy” (AstraZeneca AB, priority 2007, dated 2012).
